Measurements published in patent US11384113B2, “Cobalamin derivatives and their use for the treatment of diseases caused by lack of vitamin B12 supply” (Albert-Ludwigs-Universitaet Freiburg, priority 2017, dated 2022).
Substitutions are numbered along the chain they refer to. Where two headings read alike, the source gives them in different places.

Legend:
[1] = pH 7.72, l = 0.5, KNO3; cited from earlier work
[2] = system: cultured fibroblasts; experiment: Cytotoxicity and cellular transport observed in cultured fibroblast experiments; type: cell-based, human
[3] = molecular target: T1, human wild type CblC (Homo sapiens, UniProt Q9Y4U1); experiment: Binding to CblC and conversion to base-off configuration (UV-visible spectrophotometry); settings: pH 7.6, EPPS buffer 0.04 M
T1 sequence (Q9Y4U1 1-282): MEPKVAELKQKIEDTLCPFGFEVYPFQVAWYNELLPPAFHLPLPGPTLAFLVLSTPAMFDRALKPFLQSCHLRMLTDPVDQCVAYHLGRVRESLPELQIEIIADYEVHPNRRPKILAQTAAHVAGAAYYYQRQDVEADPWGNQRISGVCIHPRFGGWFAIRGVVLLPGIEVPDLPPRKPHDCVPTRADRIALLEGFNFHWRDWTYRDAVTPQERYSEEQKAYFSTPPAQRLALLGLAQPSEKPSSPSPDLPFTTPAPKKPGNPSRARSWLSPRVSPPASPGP
Description: An important aspect for the bioactivity of the new compounds is their ability to bind to the processing enzyme CblC, and to undergo conversion to the base-off configuration, which enhances their reactivity. This is a critical step in all intracellular pathways of vitamin B12 metabolism that are involved in pathogenesis, and certainly, relevant to the cblC disease itself. […] Binding studies were conducted at pH 7.6 (EPPS buffer, 0.04 M) and analyzed by UV-visible spectrophotometry.

[4] = molecular target: T2, human recombinant CblC wild type (Homo sapiens, UniProt Q9Y4U1); type: biochemical; settings: for Half-life of beta-axial ligand removal, Wild type CblC: human, pH 7.6
T2 sequence (Q9Y4U1 1-282): T1 sequence (Q9Y4U1 1-282)
Description: (§1) The ability of the newly synthesized Cbl derivatives to serve as substrates for CblC was examined (FIG. 12). CblC activity was measured by UV-visible spectroscopy according to published procedures. Analysis of reaction products was performed by mass spectrometry. We measured dealkylation and de-thiolation of Co—C and Co—S bonded Cbl derivatives, respectively, by wild type and mutant CblC proteins to determine whether these reactions could be supported in patients harboring an abnormal isoform of CblC with low or no enzymatic activity.
The enzymatic activity of CblC in the presence of CyaCbl and MPGCbl as substrates was evaluated under the same experimental conditions utilized to examine dealkylation of MeCbl and AdoCbl. […] The reaction was complete in less than 10 seconds, which is the time it takes to record the first spectrum after mixing of CblC-bound to CyaCbl or MPGCbl with 5 mM GSH (FIG. 12).
(§2) First, the ability of novel cobalamins described herein was tested to act as substrate for wild type CblC and to restore the lost activity of pathogenic variants, such as mutant Arg161Gly, that leads to early-onset form of the cblC disease.

[5] = Concentration-dependent reaction rate of aquacobalamin with thiol ligand forming thiolatocobalamin (time-resolved UV-visible spectroscopy); type: physicochemical; settings: pH 7.2, l = 1, sodium triflate
Description: The UV-visible spectra of newly synthesized cobalamin derivatives was determined in EPPS buffer (40 mM, pH 7.6, l=1.0 M with sodium triflate). The reaction of aquacobalamin with cysteamine and mercaptopropionylglycine was monitored by time-resolved spectral scanning of reactions containing a fixed amount of aquacobalamin (10-25 μM (micromolar)) and various concentrations of the ligand.
Mercaptopropionylglycine reacted readily with aquacobalamin to form a stable MPGCbl complex at pH 7.2.
A fixed concentration of aquacobalamin was reacted with varying concentrations of the ligand MPG. The reaction was monitored by time-resolved UV-visible spectroscopy for a total of 50 minutes (FIG. 5). The spectral changes were consistent with the conversion of aquacobalamin into MPGCbl (FIG. 5 a) via a mechanism that involves no detectable reaction intermediates. Initial and final spectra are analyzed to confirm the identity of the thiolatocobalamin product (FIG. 5 b). Time courses were generated at the absorption maxima of each species (350 nm, H2OCbl^+, and 372 nm, MPGCbl) (FIG. 5 c).

[6] = system: fibroblasts from healthy subjects; experiment: MMA in conditioned medium of control fibroblasts; type: cell-based, human
Source text: (§3) Cultured cells from control (healthy neonatal subjects) or cblC fibroblasts were supplemented without exogenous Cbl (negative control), with commercial CNCbl (current therapy control) or with the newly synthesized cobalamins (test group). The ability of these compounds to support intracellular Cbl metabolism in the absence of CblC was examined by monitoring disease biomarker metabolites Hcy and MMA levels in the conditioned medium.
(§4) The cellular response to treatment with new derivatives CyaCbl and MPGCbl in comparison with current therapeutic form CNCbl was measured. The ability of the new cobalamin derivatives CyaCbl and MPGCbl to achieve metabolic control, i.e. reduction of for example MMA production by cblC fibroblasts in culture, was examined as described in previously published experimental protocols. FIG. 13 provides a comparison of the effect of CNCbl (0.001 mM) versus the same dose of CyaCbl or MPGCbl given to cultured fibroblasts from healthy subjects (HFF, NHDF, PCS, Wiesel, Control) or from cblC patients (WG1801, WG2176, WG3354, GM10011, GM02345B, GM02452C).
(§5) Additional examination of the effect of thiolatocobalamins CyaCbl and MPGCbl and sulfur-containing alkylcobalamin Me-S-MeCbl with respect to structural analogues that are NOT available for therapy was also carried out, for comparative purposes. The results of cellular response (healthy controls and cblC patient fibroblasts) to cobalamin treatment, as reflected by MMA levels is provided in Table 6.

[7] = molecular target: T2, human recombinant CblC wild type; type: biochemical; settings: dethiolation; 50 μM GSH
[8] = molecular target: T3, human recombinant CblC pathogenic mutant Arg161Gly (Homo sapiens, UniProt Q9Y4U1, R161G); type: biochemical; settings: for Half-life of beta-axial ligand removal, Mutant Arg161Gly: human, pH 7.6
T3 sequence (Q9Y4U1 1-282 R161G): T1 sequence (Q9Y4U1 1-282) with R161G
Description: as §1, §2

[9] = system: fibroblasts isolated from patients with cblC disease; experiment: MMA in conditioned medium of cblC patient fibroblasts; type: cell-based, human
Source text: as §3, §4, §5

[10] = base-on to base-off equilibrium; cited from earlier work
[11] = electrochemical; 20° C.; cited from earlier work
[12] = Controls (group value), after 7 days
[13] = Controls, after 7 days wash-off period without supplemental cobalamin
[14] = HFF control fibroblasts, after 7 days
[15] = NHDF control fibroblasts, after 7 days
[16] = Wiezel control fibroblasts, after 7 days
[17] = GM02345B cblC fibroblasts, after 7 days
[18] = GM02452C cblC fibroblasts, after 7 days
[19] = GM10011 cblC fibroblasts, after 7 days
[20] = WG1801 cblC fibroblasts, after 7 days
[21] = WG2176 cblC fibroblasts, after 7 days
[22] = WG3354 cblC fibroblasts, after 7 days
[23] = cblC patients (group value), after 7 days
[24] = cblC patients, after 7 days wash-off period without supplemental cobalamin

Compound	K, concentration-dependent reaction rate (formation from aquacobalamin) [1]	Half-life of beta-axial ligand removal, Wild type CblC [4]	K, concentration-dependent reaction rate (formation from aquacobalamin) [5]	MMA in conditioned medium [6, 12]	MMA in conditioned medium [6, 13]	MMA in conditioned medium [6, 14]	MMA in conditioned medium [6, 15]	MMA in conditioned medium [6, 16]	Product under ambient conditions, Wild type CblC [7]	Product under ambient conditions, Mutant Arg161Gly ([8]; dethiolation, 50 μM GSH)	Half-life of beta-axial ligand removal, Mutant Arg161Gly [8]	MMA in conditioned medium [9, 17]	MMA in conditioned medium [9, 18]	MMA in conditioned medium [9, 19]	MMA in conditioned medium [9, 20]	MMA in conditioned medium [9, 21]	MMA in conditioned medium [9, 22]	MMA in conditioned medium [9, 23]	MMA in conditioned medium [9, 24]	other results
CC(C[S][Co+2])C(=O)N1CCCC1C(=O)O.CC1=C2N=C(C=C3N=C(C(C)=C4[N-]C(C(CC(N)=O)C4(C)CCC(=O)NCC(C)OP(=O)([O-])OC4C(CO)OC(n5cnc6cc(C)c(C)cc65)C4O)C4(C)N=C1C(CCC(N)=O)C4(C)CC(N)=O)C(CCC(N)=O)C3(C)C)C(CCC(N)=O)C2(C)CC(N)=O (stereo not drawn) [CaptoprilCbl]	24.7 M⁻¹ s⁻¹																			
CC1=C2N=C(C=C3N=C(C(C)=C4[N-]C(C(CC(N)=O)C4(C)CCC(=O)NCC(C)OP(=O)([O-])OC4C(CO)OC(n5cnc6cc(C)c(C)cc65)C4O)C4(C)N=C1C(CCC(N)=O)C4(C)CC(N)=O)C(CCC(N)=O)C3(C)C)C(CCC(N)=O)C2(C)CC(N)=O.NCC[S][Co+2] (stereo not drawn) [CyaCbl]		<0.5 min	28.66 M⁻¹ s⁻¹	0.141 μmol/mg protein	0.154 μmol/mg protein	0.095 μmol/mg protein	0.184 μmol/mg protein	0.144 μmol/mg protein	H2OCbl	H2OCbl	2.1 min	0.217 μmol/mg protein	0.369 μmol/mg protein	0.208 μmol/mg protein	0.194 μmol/mg protein	0.189 μmol/mg protein	0.114 μmol/mg protein	0.215 μmol/mg protein	0.190 μmol/mg protein	Transport into the cells ([2]; canonical TC transporter and its cellular receptor CD320): transported successfully into the cells; Cytotoxicity ([2]; under the experimental conditions of the fibroblast cultures): not cytotoxic; Effect of binding to human wild type CblC on configuration [3]: induces their base-off configuration; Product of the reaction ([4]; cobalamin bound to human CblC, in the presence of GSH): H2OCbl^+; Reduction of MMA to the levels of healthy fibroblasts, compared with CNCbl ([9]; 0.001 mM, same dose as CNCbl, FIG. 13): far superior compared to CNCbl
C/C1=C2N=C(/C=C3N=C(/C(C)=C4\[N-]C(C(CC(N)=O)C4(C)CCC(=O)NCC(C)OP(=O)([O-])OC4C(CO)OC(n5cnc6cc(C)c(C)cc65)C4O)C4(C)N=C1C(CCC(N)=O)C4(C)CC(N)=O)C(CCC(N)=O)C\3(C)C)C(CCC(N)=O)C/2(C)CC(N)=O.NC(CCC(=O)NC(C[S-])C(=O)NCC(=O)O)C(=O)O.[Co+3] (stereo not drawn) [GSCbl, glutathionylcobalamin, reference compound]	18.09 M⁻¹ s⁻¹	2.5 min	20.74 M⁻¹ s⁻¹	0.106 μmol/mg protein	0.134 μmol/mg protein	0.105 μmol/mg protein	0.078 μmol/mg protein	0.135 μmol/mg protein	H2OCbl	H2OCbl	9.8 min	0.223 μmol/mg protein	0.167 μmol/mg protein	0.052 μmol/mg protein	0.198 μmol/mg protein	0.316 μmol/mg protein	0.269 μmol/mg protein	0.204 μmol/mg protein	0.275 μmol/mg protein	Fold less proficient support of the CblC reaction than MPGCbl and CyaCbl ([4]; wild type and pathogenic variant Arg161Gly): 4-5 fold
C/C1=C2/[N-][C@H]([C@H](CC(N)=O)[C@@]2(C)CCC(=O)NC[C@H](C)OP(=O)([O-])O[C@H]2[C@@H](O)[C@@H](n3cnc4cc(C)c(C)cc43)O[C@@H]2CO)[C@]2(C)N=C(/C(C)=C3N=C(/C=C4N=C1[C@@H](CCC(N)=O)C\4(C)C)[C@@H](CCC(N)=O)[C@]\3(C)CC(N)=O)[C@@H](CCC(N)=O)[C@]2(C)CC(N)=O.[CH3-].[Co+3] [MeCbl, Methylcobalamin, reference compound]		10 min		0.118 μmol/mg protein	0.131 μmol/mg protein	0.106 μmol/mg protein	0.152 μmol/mg protein	0.095 μmol/mg protein			60 min	0.250 μmol/mg protein	0.243 μmol/mg protein	0.066 μmol/mg protein	0.429 μmol/mg protein	0.459 μmol/mg protein	0.891 μmol/mg protein	0.390 μmol/mg protein	0.298 μmol/mg protein	Product under ambient conditions, Wild type CblC ([4]; dealkylation, 5 mM GSH): H2OCbl; pKa of base on/base off [10]: 2.90; Product under ambient conditions, Mutant Arg161Gly ([8]; dealkylation, 5 mM GSH): Cob(II)alamin; Redox potential [V] relative to NHE [11]: −1.20 V
